Measured values: patent US20060035291A1, “Method of detecting cellular immunity and application thereof to drugs” (priority 2001, published 2006)

System: HLA-A2 restricted antigen peptide-specific T cells (CTL precursors) in PBMCs
Assay: IFN-γ production (ELISA) by peptide-stimulated HLA-A2 positive PBMCs in response to peptide-sensitized T2 cells
Assay type: cell-based, human
Set-up: production level of IFN-γ: unit not given here
Conditions: for production level of IFN-γ: average of 4, HIV peptide background subtracted; for IFN-γ production 1st well / IFN-γ production 2nd well / IFN-γ production 3rd well / IFN-γ production 4th well: before vaccination
[1] = HD6, HLA-A2 positive healthy donor
[2] = HD7, HLA-A2 positive healthy donor
[3] = HD8, HLA-A2 positive healthy donor
[4] = HD9, HLA-A2 positive healthy donor
[5] = HD10, HLA-A2 positive healthy donor
[6] = HLA-A2 positive cervical cancer patient, response to HIV-T2 cells subtracted
[7] = HLA-A2 positive prostate cancer patient
[8] = Pt. 11, HLA-A2 positive pancreatic cancer, ELISA sensitivity limit 10 pg/ml
[9] = Pt. 12, HLA-A2 positive pancreatic cancer, ELISA sensitivity limit 10 pg/ml
[10] = Pt. 13, HLA-A2 positive pancreatic cancer, ELISA sensitivity limit 10 pg/ml
[11] = Pt. 14, HLA-A2 positive pancreatic cancer, ELISA sensitivity limit 10 pg/ml
[12] = Pt. 15, HLA-A2 positive pancreatic cancer, ELISA sensitivity limit 10 pg/ml

Row | Substance | production level of IFN-γ [1] | production level of IFN-γ [2] | production level of IFN-γ [3] | production level of IFN-γ [4] | production level of IFN-γ [5] | IFN-γ production 1st well [6] [pg/well] | IFN-γ production 2nd well [6] [pg/well] | IFN-γ production 3rd well [6] [pg/well] | IFN-γ production 4th well [6] [pg/well] | IFN-γ production 1st well [7] [pg/well] | IFN-γ production 2nd well [7] [pg/well] | IFN-γ production 3rd well [7] [pg/well] | IFN-γ production 4th well [7] [pg/well] | production level of IFN-γ [8] | production level of IFN-γ [9] | production level of IFN-γ [10] | production level of IFN-γ [11] | production level of IFN-γ [12]
1 | ASLDSDPWV [WHSC2103] | 0 | 0 | 0 | 0 | 96 | 74 | <0 | <0 | <0 | 3 | 0 | <0 | <0 | 186 | 154 | 0 | 38 | 0
2 | ALVEFEDVL [HNRPL140] | 967 | 0 | 0 | 0 | 99 | 24 | <0 | 13 | 40 | 16 | <0 | <0 | <0 | 0 | 63 | 0 | 317 | 39
3 | LLQAEAPRL [SART3302] | 0 | 0 | 51 | 70 | 0 | <0 | <0 | 8 | <0 | <0 | <0 | <0 | <0 | 32 | 0 | 226 | 8 | 0
4 | LIADFLSGL [UBE2V85] | 0 | 0 | 0 | 0 | 1226 | 7 | 34 | <0 | <0 | 0 | <0 | 7 | <0 | 0 | 1 | 13 | 7 | 43
5 | RLQEWCSVI [UBE2V43] | 980 | 31 | 0 | 3 | 56 | 13 | 11 | <0 | <0 | <0 | <0 | <0 | <0 | 0 | 0 | 0 | 7 | 0
6 | KLVERLGAA [lck246] | 0 | 21 | 29 | 26 | 0 | 19 | <0 | <0 | <0 | <0 | <0 | <0 | <0 | 74 | 16 | 24 | 0 | 0
7 | DVWSFGILL [lck422] | 0 | 11 | 23 | 60 | 26 | <0 | <0 | <0 | 8 | 1 | <0 | <0 | <0 | 20 | 81 | 10 | 71 | 0
8 | GLLFLHTRT [ppMAPkkk294] | 0 | 58 | 0 | 0 | 86 | 133 | <0 | <0 | <0 | <0 | 34 | <0 | <0 | 179 | 170 | 0 | 0 | 0
9 | KLKHYGPGWV [CypB129] | 0 | 0 | 31 | 29 | 6 | – | – | – | – | – | – | – | – | 43 | 0 | 0 | 0 | 0
10 | NVLHFFNAPL [HNRPL501] | 0 | 0 | 0 | 0 | 0 | 24 | <0 | <0 | 18 | <0 | 7 | <0 | <0 | 0 | 0 | 14 | 0 | 13
11 | VLEGMEW [CypB172] | – | – | – | – | – | 22 | <0 | <0 | <0 | <0 | 0 | <0 | <0 | – | – | – | – | –
12 | ILGELREKV [WHSC2141] | 0 | 0 | 0 | 12 | 260 | 10 | <0 | <0 | <0 | 6 | 14 | <0 | 9 | 0 | 47 | 0 | 659 | 38
13 | DLLSHAFFA [ppMAPkkk432] | 0 | 0 | 0 | 0 | 73 | 137 | 12 | <0 | <0 | 43 | 64 | <0 | 5 | 42 | 57 | 58 | 0 | 0
14 | RLAEYQAYI [SART3309] | 0 | 127 | 30 | 25 | 0 | <0 | <0 | 9 | 28 | <0 | <0 | <0 | <0 | 116 | 0 | 19 | 3 | 27
